Test results: US20240360154A1, “AROYL SUBSTITUTED TRICYCLIC COMPOUND, PREPARATION METHOD THEREFOR AND USE THEREOF” (GENFLEET THERAPEUTICS (SHANGHAI) INC., priority 2020, published 2024)

Experiments:
BTK (C481S) = BTK (C481S) (Homo sapiens (Human), UniProt Q06187, C481S); assay: BTK C481S enzyme experiment (ADP-Glo kinase assay); format: biochemical; settings: 10 nM BTK C481S, ATP 125 μM, Poly(Glu4, Tyr1), 90 minutes at 20° C.
Procedure, shortened: (§1)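 Wild-type or C481S BTK, added as 2× solution at 10 nM, preincubated 10 min with 3-fold compound dilutions in 50 mM HEPES pH 7.5, 10 mM MgCl2, 2 mM DTT, 0.0015% Brij-35. ADP-Glo luminescence norm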

TMD-8 cells = assay: TMD-8 proliferation inhibition experiment; format: cell-based; settings: human diffuse large B lymphoma cells, three days incubation
Description: TMD-8 cells are human diffuse large B lymphoma (Mingzhou Bio, MZ-0832), cultured in 10% FBS+1% PS 1640 medium; OCI-LY10 is human diffuse large B lymphoma (BeNa Culture Collection, BNCC337742), cultured in 10% FBS+1% PS IMDM. Day 1: Cells at logarithmic growth phase were taken, counted and inoculated 600 TMD-8 or 2000 OCI-LY10 cells in a 384-well cell culture plate and cultured overnight. Day 2: A 3-fold gradient concentration stock solution of 400× compound was prepared with DMSO, and diluted 40-fold to a 10× compound stock solution with culture medium. The 10× compound stock solution was added to each cell culture well with a final concentration of 1× compound stock solution and a DMSO content of 0.25%. DMSO was used as experimental control, and culture medium was used as blank control. The incubation was continued for three days after compound addition. On the fifth day, 25 μL of […] was added to each well, mixed well and incubated for 10 minutes, then the chemiluminescence value (RLU value) was read. The cell proliferation inhibition rate (%)=(RLUcontrol−RLUcompound)/(RLUcontrol−RLUblank)×100% was calculated. The compound gradient dilution concentration and the corresponding cell proliferation inhibition rate were fit by using XLFit four-parameter method, and IC50 value was calculated.

BTK = BTK (Homo sapiens (Human), UniProt Q06187); assay: BTK enzyme experiment (ADP-Glo kinase assay); format: biochemical; settings: 10 nM BTK, ATP 125 μM, Poly(Glu4, Tyr1), 90 minutes at 20° C.; read-out: BTK(WT) IC50
Procedure, shortened: as §1

Sequence of BTK (C481S) (Q06187 whole entry C481S): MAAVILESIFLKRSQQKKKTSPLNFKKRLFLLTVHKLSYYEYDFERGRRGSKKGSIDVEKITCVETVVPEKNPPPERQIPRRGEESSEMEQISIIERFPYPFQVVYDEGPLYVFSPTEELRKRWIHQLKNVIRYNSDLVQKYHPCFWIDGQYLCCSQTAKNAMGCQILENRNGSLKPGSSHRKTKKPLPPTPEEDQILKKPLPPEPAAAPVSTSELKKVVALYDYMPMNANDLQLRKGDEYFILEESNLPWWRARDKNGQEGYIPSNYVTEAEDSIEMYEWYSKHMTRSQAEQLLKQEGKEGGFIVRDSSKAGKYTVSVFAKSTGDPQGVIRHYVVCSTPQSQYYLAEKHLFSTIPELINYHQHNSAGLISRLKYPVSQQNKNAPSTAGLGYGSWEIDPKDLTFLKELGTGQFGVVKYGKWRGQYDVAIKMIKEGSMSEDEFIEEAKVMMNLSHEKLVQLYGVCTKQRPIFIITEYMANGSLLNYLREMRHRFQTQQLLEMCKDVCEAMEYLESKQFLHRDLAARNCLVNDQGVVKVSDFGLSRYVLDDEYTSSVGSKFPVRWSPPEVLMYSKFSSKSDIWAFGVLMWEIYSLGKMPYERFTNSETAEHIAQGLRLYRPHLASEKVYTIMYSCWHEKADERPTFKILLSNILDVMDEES
Sequence of BTK (Q06187 whole entry): as the sequence (Q06187 whole entry C481S) above, with S481C counted along it

Structure (SMILES)	IC50 (BTK (C481S))	IC50 (BTK)	IC50 (TMD-8 cells; Homo sapiens, TMD8, 72 h)	IC50 (TMD-8 cells)	IC50 (TMD-8 cells; TMD8, 72 h)
COC[C@]1(C)Nc2c(cnc3[nH]cc(C(=O)c4ccc(Oc5cccc(C)n5)cc4Cl)c23)NC1=O [Z124-1, (S)-9-(2-chloro-4-((6-methylpyridin-2-yl)oxy)benzoyl)-2-(methoxymethyl)-2-methyl-1,2,4,7-tetrahydro-3H-pyrrolo[3′,2′:5,6]pyrido[3,4-b]pyrazin-3-one]	30.1 nM	24.5 nM			199 nM
COC1CCC2(C1)Nc1c(cnc3[nH]cc(C(=O)c4ccc(Oc5cc(C)ccn5)cc4Cl)c13)NC2=O (stereo not drawn) [Z126, 9′-(2-chloro-4-((4-methylpyridin-2-yl)oxy)benzoyl)-3-methoxy-4′,7′-dihydrospiro[cyclopentane-1,2′-pyrrolo[3′,2′:5,6]pyrido[3,4-b]pyrazin]-3′(1′H)-one]	13.4 nM	5.7 nM	183 nM		
COC[C@]1(C)Nc2c(cnc3[nH]cc(C(=O)c4ccc(Oc5cccc(C#N)c5)cc4Cl)c23)NC1=O [Z131, (S)-3-(3-chloro-4-(2-(methoxymethyl)-2-methyl-3-oxo-2,3,4,7-tetrahydro-1H-pyrrolo[3′,2′:5,6]pyrido[3,4-b]pyrazine-9-carbonyl)phenoxy)benzonitrile]	37.8 nM	26.9 nM	307 nM		
C[C@@]1(COC(F)F)Nc2c(cnc3[nH]cc(C(=O)c4ccc(Oc5ccccc5)cc4Cl)c23)NC1=O [Z139, (S)-9-(2-chloro-4-phenoxybenzoyl)-2-((difluoromethoxy)methyl)-2-methyl-1,2,4,7-tetrahydro-3H-pyrrolo[3′,2′:5,6]pyrido[3,4-b]pyrazin-3-one]	22.1 nM	37.1 nM	106 nM		
COC[C@]1(C)Nc2c(cnc3[nH]cc(C(=O)c4ccc(Oc5ncccc5C)cc4Cl)c23)NC1=O [Z140, (S)-9-(2-chloro-4-((3-methylpyridin-2-yl)oxy)benzoyl)-2-(methoxymethyl)-2-methyl-1,2,4,7-tetrahydro-3H-pyrrolo[3′,2′:5,6]pyrido[3,4-b]pyrazin-3-one]	18.2 nM	26.5 nM	158 nM		
COC[C@]1(C)Nc2c(cnc3[nH]cc(C(=O)c4ccc(Oc5ccccc5)cc4Cl)c23)N(CCO)C1=O [Z143]	23.2 nM	35.6 nM		291 nM	
COC[C@]1(C)Nc2c(cnc3[nH]cc(C(=O)c4ccc(Oc5ncccc5Cl)cc4Cl)c23)NC1=O [Z147, (S)-9-(2-chloro-4-((3-chloropyridin-2-yl)oxy)benzoyl)-2-(methoxymethyl)-2-methyl-1,2,4,7-tetrahydro-3H-pyrrolo[3′,2′:5,6]pyrido[3,4-b]pyrazin-3-one]	19.8 nM	11.1 nM	279 nM		
[2H]C([2H])([2H])OC[C@]1(C)Nc2c(cnc3[nH]cc(C(=O)c4ccc(Oc5cccc(F)c5)cc4Cl)c23)NC1=O [Z162, (S)-9-(2-chloro-4-(3-fluorophenoxy)benzoyl)-2-((methoxy-d3)methyl)-2-methyl-1,2,4,7-tetrahydro-3H-pyrrolo[3′,2′:5,6]pyrido[3,4-b]pyrazin-3-one]	36 nM	25.6 nM	169 nM		

More lines, in order of falling IC50 (BTK (C481S)), values ahead:

IC50 (BTK (C481S))	IC50 (BTK)	Structure (SMILES)	IC50 (TMD-8 cells; Homo sapiens, TMD8, 72 h)	IC50 (TMD-8 cells)	IC50 (TMD-8 cells; TMD8, 72 h)
73.9 nM	54.2 nM	COC[C@]1(C)Nc2c(cnc3[nH]cc(C(=O)c4ccc(Oc5cccc(Cl)c5)cc4Cl)c23)NC1=O [Z165, (S)-9-(2-chloro-4-(3-chlorophenoxy)benzoyl)-2-(methoxymethyl)-2-methyl-1,2,4,7-tetrahydro-3H-pyrrolo[3′,2′:5,6]pyrido[3,4-b]pyrazin-3-one]	366 nM		
30.1 nM	22.4 nM	COC[C@]1(C)Nc2c(cnc3[nH]cc(C(=O)c4ccc(Oc5ccccc5Cl)cc4Cl)c23)NC1=O [Z164, (S)-9-(2-chloro-4-(2-chlorophenoxy)benzoyl)-2-(methoxymethyl)-2-methyl-1,2,4,7-tetrahydro-3H-pyrrolo[3′,2′:5,6]pyrido[3,4-b]pyrazin-3-one]	145 nM		
28.8 nM	27.6 nM	COCC[C@@]1(C)Nc2c(cnc3[nH]cc(C(=O)c4ccc(Oc5ccccc5)cc4Cl)c23)NC1=O [Z78-1]		289 nM	
16.8 nM	11.7 nM	COC[C@]1(C)Nc2c(cnc3[nH]cc(C(=O)c4ccc(Oc5ncccc5F)cc4Cl)c23)NC1=O [Z144, (S)-9-(2-chloro-4-((3-fluoropyridin-2-yl)oxy)benzoyl)-2-(methoxymethyl)-2-methyl-1,2,4,7-tetrahydro-3H-pyrrolo[3′,2′:5,6]pyrido[3,4-b]pyrazin-3-one]	227 nM		
16.5 nM	10.6 nM	COC[C@]1(C)Nc2c(cnc3[nH]cc(C(=O)c4ccc(Oc5ccccc5OC)cc4Cl)c23)NC1=O [Z163, (S)-9-(2-chloro-4-(2-methoxyphenoxy)benzoyl)-2-(methoxymethyl)-2-methyl-1,2,4,7-tetrahydro-3H-pyrrolo[3′,2′:5,6]pyrido[3,4-b]pyrazin-3-one]	75.7 nM		
16.3 nM	10 nM	[2H]C([2H])([2H])OC[C@]1(C)Nc2c(cnc3[nH]cc(C(=O)c4ccc(Oc5nccc(C)c5F)cc4Cl)c23)NC1=O [Z146, (S)-9-(2-chloro-4-((3-fluoro-4-methylpyridin-2-yl)oxy)benzoyl)-2-((methoxy-d3)methyl)-2-methyl-1,2,4,7-tetrahydro-3H-pyrrolo[3′,2′:5,6]pyrido[3,4-b]pyrazin-3-one]	195 nM		
14.5 nM	22.8 nM	COCC1(C)Nc2c(cnc3[nH]cc(C(=O)c4ccc(Oc5cc(C6CC6)ccn5)cc4Cl)c23)NC1=O (stereo not drawn) [Z73, 9-(2-chloro-4-((4-cyclopropylpyridin-2-yl)oxy)benzoyl)-2-(methoxymethyl)-2-methyl-4,7-dihydro-1H-pyrrolo[3′,2′:5,6]pyrido[3,4-b]pyrazin-3(2H)-one]	209 nM		
13.1 nM	9.3 nM	[2H]C([2H])([2H])OC[C@]1(C)Nc2c(cnc3[nH]cc(C(=O)c4ccc(Oc5ncccc5F)cc4Cl)c23)NC1=O [Z145, (S)-9-(2-chloro-4-((3-fluoropyridin-2-yl)oxy)benzoyl)-2-((methoxy-d3)methyl)-2-methyl-1,2,4,7-tetrahydro-3H-pyrrolo[3′,2′:5,6]pyrido[3,4-b]pyrazin-3-one]	166 nM		
11.4 nM	14.9 nM	COC[C@]1(C)Nc2c(cnc3[nH]cc(C(=O)c4ccc(Oc5cc(Cl)cc(C)n5)cc4Cl)c23)NC1=O [Z134, (S)-9-(2-chloro-4-((4-chloro-6-methylpyridin-2-yl)oxy)benzoyl)-2-(methoxymethyl)-2-methyl-1,2,4,7-tetrahydro-3H-pyrrolo[3′,2′:5,6]pyrido[3,4-b]pyrazin-3-one]	256 nM		
10.8 nM	15.2 nM	COC[C@]1(C)Nc2c(cnc3[nH]cc(C(=O)c4ccc(Oc5cccc(F)c5)cc4Cl)c23)NC1=O [Z157, (S)-9-(2-chloro-4-(3-fluorophenoxy)benzoyl)-2-(methoxymethyl)-2-methyl-1,2,4,7-tetrahydro-3H-pyrrolo[3′,2′:5,6]pyrido[3,4-b]pyrazin-3-one]	145 nM		
10.5 nM	20 nM	COC[C@]1(C)Nc2c(cnc3[nH]cc(C(=O)c4ccc(Oc5ccccc5F)cc4F)c23)NC1=O [Z156, (S)-9-(2-fluoro-4-(2-fluorophenoxy)benzoyl)-2-(methoxymethyl)-2-methyl-1,2,4,7-tetrahydro-3H-pyrrolo[3′,2′:5,6]pyrido[3,4-b]pyrazin-3-one]	117 nM		
